Tests used:
Assay in all cases: relative viability (nuclei count vs DMSO), 5 days (fraction); higher = more cells survive
LOU-NH91 = system: LOU-NH91
Outline: (§1)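 Each reported value is a median over duplicate plates. It expresses relative viability: treated-well nuclei count divided by vehicle-well nuclei count. Lung cancer cell lines in 1536-well plates were dosed by pin tool a day after seeding, alone with one drug or with a fixed anchor-drug dose plus five library-drug doses (not always all listed) in √10 steps, and nuclei were counted after 5 days.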

NCI-H23 = system: NCI-H23
Outline: as §1

SK-LU-1 = system: SK-LU-1
Outline: as §1

NCI-H2023 = system: NCI-H2023
Outline: as §1

PC-3 [JPC-3] = system: PC-3 [JPC-3]
Outline: as §1

NCI-H460 = system: NCI-H460
Outline: as §1

LCLC-97TM1 = system: LCLC-97TM1
Outline: as §1

NCI-H1915 = system: NCI-H1915
Outline: as §1

NCI-H2170 = system: NCI-H2170
Outline: as §1

NCI-H2126 = system: NCI-H2126
Outline: as §1

NCI-H1793 = system: NCI-H1793
Outline: as §1

LXF-289 = system: LXF-289
Outline: as §1

NCI-H441 = system: NCI-H441
Outline: as §1

BEN = system: BEN
Outline: as §1

LU99A = system: LU99A
Outline: as §1

NCI-H1666 = system: NCI-H1666
Outline: as §1

A-427 = system: A-427
Outline: as §1

HARA = system: HARA
Outline: as §1

NCI-H1395 = system: NCI-H1395
Outline: as §1

NCI-H322M = system: NCI-H322M
Outline: as §1

COCC1(CO)C(=O)C2CCN1CC2 (centres undefined) [PRIMA-1MET] + CC1(C)CCC(c2ccc(Cl)cc2)=C(CN2CCN(c3ccc(C(=O)NS(=O)(=O)c4ccc(N[C@H](CCN5CCOCC5)CSc5ccccc5)c(S(=O)(=O)C(F)(F)F)c4)cc3)CC2)C1 [Navitoclax] (partner 0.5 µM)
relative viability (LOU-NH91; first compound 0.2 µM): 0.729
relative viability (LOU-NH91; first compound 0.6325 µM): 0.677
relative viability (LOU-NH91; first compound 2 µM): 0.589
relative viability (LOU-NH91; first compound 6.325 µM): 0.601
relative viability (LOU-NH91; first compound 20 µM): 0.383
relative viability (NCI-H23; first compound 0.2 µM): 1.03
relative viability (NCI-H23; first compound 0.6325 µM): 0.668
relative viability (NCI-H23; first compound 2 µM): 0.701
relative viability (NCI-H23; first compound 6.325 µM): 0.811
relative viability (NCI-H23; first compound 20 µM): 0.119
relative viability (SK-LU-1; first compound 0.2 µM): 0.848
relative viability (SK-LU-1; first compound 0.6325 µM): 1.06
relative viability (SK-LU-1; first compound 2 µM): 0.789
relative viability (SK-LU-1; first compound 6.325 µM): 1.15
relative viability (SK-LU-1; first compound 20 µM): 0.0933
relative viability (NCI-H2023; first compound 0.2 µM): 1.04
relative viability (NCI-H2023; first compound 0.6325 µM): 0.999
relative viability (NCI-H2023; first compound 2 µM): 0.992
relative viability (NCI-H2023; first compound 6.325 µM): 1.07
relative viability (NCI-H2023; first compound 20 µM): 0.977
relative viability (PC-3 [JPC-3]; first compound 0.2 µM): 0.853
relative viability (PC-3 [JPC-3]; first compound 0.6325 µM): 0.572
relative viability (PC-3 [JPC-3]; first compound 2 µM): 0.816
relative viability (PC-3 [JPC-3]; first compound 6.325 µM): 0.794
relative viability (PC-3 [JPC-3]; first compound 20 µM): 0.708
relative viability (NCI-H460; first compound 0.2 µM): 1.44
relative viability (NCI-H460; first compound 0.6325 µM): 0.971
relative viability (NCI-H460; first compound 2 µM): 1.06
relative viability (NCI-H460; first compound 6.325 µM): 0.528
relative viability (NCI-H460; first compound 20 µM): 0.0099
relative viability (LCLC-97TM1; first compound 0.2 µM): 0.605
relative viability (LCLC-97TM1; first compound 2 µM): 0.644
relative viability (LCLC-97TM1; first compound 6.325 µM): 0.531
relative viability (LCLC-97TM1; first compound 20 µM): 0.0875
relative viability (NCI-H1915; first compound 0.2 µM): 0.766
relative viability (NCI-H1915; first compound 0.6325 µM): 0.586
relative viability (NCI-H1915; first compound 2 µM): 0.642
relative viability (NCI-H1915; first compound 6.325 µM): 0.773
relative viability (NCI-H1915; first compound 20 µM): 0.778
relative viability (NCI-H2170; first compound 0.2 µM): 0.621
relative viability (NCI-H2170; first compound 0.6325 µM): 0.543
relative viability (NCI-H2170; first compound 2 µM): 0.456
relative viability (NCI-H2170; first compound 6.325 µM): 0.622
relative viability (NCI-H2170; first compound 20 µM): 0.554
relative viability (NCI-H2126; first compound 0.2 µM): 0.931
relative viability (NCI-H2126; first compound 0.6325 µM): 0.833
relative viability (NCI-H2126; first compound 2 µM): 0.897
relative viability (NCI-H2126; first compound 6.325 µM): 0.852
relative viability (NCI-H2126; first compound 20 µM): 0.839
relative viability (NCI-H1793; first compound 0.2 µM): 0.576
relative viability (NCI-H1793; first compound 0.6325 µM): 0.446
relative viability (NCI-H1793; first compound 6.325 µM): 0.609
relative viability (NCI-H1793; first compound 20 µM): 0.49
relative viability (LXF-289; first compound 0.2 µM): 0.966
relative viability (LXF-289; first compound 0.6325 µM): 0.956
relative viability (LXF-289; first compound 2 µM): 0.93
relative viability (LXF-289; first compound 6.325 µM): 0.986
relative viability (LXF-289; first compound 20 µM): 0.903
relative viability (NCI-H441; first compound 0.2 µM): 0.561
relative viability (NCI-H441; first compound 0.6325 µM): 0.334
relative viability (NCI-H441; first compound 2 µM): 1.02
relative viability (NCI-H441; first compound 6.325 µM): 0.644
relative viability (NCI-H441; first compound 20 µM): 0.0807
relative viability (BEN; first compound 0.2 µM): 0.0631
relative viability (BEN; first compound 0.6325 µM): 0.0967
relative viability (BEN; first compound 6.325 µM): 0.0571
relative viability (BEN; first compound 20 µM): 0.0562
relative viability (LU99A; first compound 0.2 µM): 1.06
relative viability (LU99A; first compound 0.6325 µM): 0.611
relative viability (LU99A; first compound 2 µM): 0.898
relative viability (LU99A; first compound 6.325 µM): 0.752
relative viability (LU99A; first compound 20 µM): 0.101
relative viability (NCI-H1666; first compound 0.2 µM): 1.01
relative viability (NCI-H1666; first compound 0.6325 µM): 0.858
relative viability (NCI-H1666; first compound 2 µM): 1.03
relative viability (NCI-H1666; first compound 6.325 µM): 0.895
relative viability (NCI-H1666; first compound 20 µM): 0.249
relative viability (A-427; first compound 0.2 µM): 0.884
relative viability (A-427; first compound 0.6325 µM): 0.821
relative viability (A-427; first compound 2 µM): 0.961
relative viability (A-427; first compound 6.325 µM): 0.968
relative viability (A-427; first compound 20 µM): 1
relative viability (HARA; first compound 0.2 µM): 1.22
relative viability (HARA; first compound 0.6325 µM): 1.02
relative viability (HARA; first compound 6.325 µM): 1.13
relative viability (HARA; first compound 20 µM): 1.11
relative viability (NCI-H1395; first compound 0.2 µM): 1.17
relative viability (NCI-H1395; first compound 0.6325 µM): 1.49
relative viability (NCI-H1395; first compound 2 µM): 1.02
relative viability (NCI-H1395; first compound 6.325 µM): 1.24
relative viability (NCI-H1395; first compound 20 µM): 0.44
relative viability (NCI-H322M; first compound 0.2 µM): 1.51
relative viability (NCI-H322M; first compound 6.325 µM): 1.4
relative viability (NCI-H322M; first compound 20 µM): 1.13
